{"source": "patent US20100047273A1", "about": "“Coxsackie B virus and type 1 diabetes” (priority 2007, published 2010)", "origin": "cited, not measured here", "test_system": "coxsackie B4 virus", "settings": "reported in references 4 and 5", "data": [{"smiles": "Cc1cc(CCCOc2c(C)cc(-c3noc(C(F)(F)F)n3)cc2C)on1", "note": "[pleconaril]", "values": [{"measurement": "activity against coxsackie B4 virus", "result": "active"}]}]}
